According to PubChem BioAssay (NCI):
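Where inhibition never reached the appropriate level, the endpoint shown equals the highest concentration tested. Otherwise, values were interpolated linearly from a five-concentration, 48-hour dose response in 96-well plates. The concentration for 50% growth inhibition is given as GI50. TGI is the concentration that stops growth completely.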

Columns and labels:
Assay in all cases: NCI anticancer screen, dose series, 48 h
OVCAR-3 ovarian = test system: OVCAR-3 ovarian
M14 melanoma = test system: M14 melanoma
OVCAR-4 ovarian = test system: OVCAR-4 ovarian
HCT-15 colon = test system: HCT-15 colon
K-562 leukemia = test system: K-562 leukemia
HL-60(TB) leukemia = test system: HL-60(TB) leukemia
RXF 393 renal = test system: RXF 393 renal
UO-31 renal = test system: UO-31 renal
SW-620 colon = test system: SW-620 colon
NCI-H23 lung = test system: NCI-H23 lung

COc1cc(OC2OC(C)C(O)C(O)C2O)cc2oc(-c3ccc(O)cc3)c(CC=C(C)C)c(=O)c12 (stereo not given) showed a GI50 (OVCAR-3 ovarian) of 17.1 µM, a TGI (OVCAR-3 ovarian) of 66.3 µM and a GI50 (M14 melanoma) of 19.2 µM. It also gave a TGI (M14 melanoma) of 39.8 µM, a GI50 (OVCAR-4 ovarian) of 2.06 µM and a TGI (OVCAR-4 ovarian) of 18.9 µM. The GI50 (HCT-15 colon) was 16.8 µM, the TGI (HCT-15 colon) was 52.1 µM and the GI50 (K-562 leukemia) was 7.91 µM. For the same compound, the TGI (K-562 leukemia) was 27.9 µM, the GI50 (HL-60(TB) leukemia) was 3.5 µM and the TGI (HL-60(TB) leukemia) was 16.2 µM. For the same compound, the GI50 (RXF 393 renal) was 20.3 µM, the TGI (RXF 393 renal) was 64.6 µM and the GI50 (UO-31 renal) was 16.2 µM. It also gave a TGI (UO-31 renal) of 64.6 µM, a GI50 (SW-620 colon) of 19.7 µM and a TGI (SW-620 colon) of 44 µM. It also gave a GI50 (NCI-H23 lung) of 18.6 µM and a TGI (NCI-H23 lung) of 47.4 µM.
Cc1c(CCCl)c(=O)n2c([nH]c3ccccc32)c1C#N showed a TGI (OVCAR-3 ovarian) of 3.67 µM, a TGI (M14 melanoma) of 2.99 µM and a TGI (OVCAR-4 ovarian) of 3.16 µM. It also gave a TGI (HCT-15 colon) of 2.93 µM, a TGI (K-562 leukemia) of over 10 µM and a TGI (HL-60(TB) leukemia) of over 10 µM. The TGI (RXF 393 renal) was 3.8 µM, the TGI (UO-31 renal) was 3.51 µM and the TGI (SW-620 colon) was 2.27 µM. For the same compound, the TGI (NCI-H23 lung) was 3.49 µM.
Compound Oc1ccc(N=Nc2ccc(Cl)cc2)cc1 has a TGI (OVCAR-3 ovarian) of 55 µM, a TGI (M14 melanoma) of 23.3 µM and a TGI (OVCAR-4 ovarian) of 61 µM. It also gave a TGI (HCT-15 colon) of 32.8 µM, a TGI (K-562 leukemia) of 55.7 µM and a TGI (HL-60(TB) leukemia) of 52.3 µM. It also gave a TGI (RXF 393 renal) of 30.3 µM, a TGI (UO-31 renal) of 27.7 µM and a TGI (SW-620 colon) of over 100 µM. For the same compound, the TGI (NCI-H23 lung) was 32.3 µM.
Work on COc1cc(/C=C/c2cc(C(F)(F)F)[nH]c(=O)n2)ccc1OCc1ccccc1F yielded a GI50 (OVCAR-3 ovarian) of 4.72 µM, a TGI (OVCAR-3 ovarian) of 17.4 µM and a GI50 (M14 melanoma) of 12.5 µM. The TGI (M14 melanoma) was 26.1 µM, the GI50 (OVCAR-4 ovarian) was 7.6 µM and the TGI (OVCAR-4 ovarian) was 67.9 µM. The GI50 (HCT-15 colon) was 5.22 µM, the TGI (HCT-15 colon) was 28.3 µM and the GI50 (K-562 leukemia) was 7.55 µM. For the same compound, the TGI (K-562 leukemia) was 98.8 µM, the GI50 (HL-60(TB) leukemia) was 9.25 µM and the TGI (HL-60(TB) leukemia) was 68.2 µM. For the same compound, the GI50 (RXF 393 renal) was 2.4 µM, the TGI (RXF 393 renal) was 8.78 µM and the GI50 (UO-31 renal) was 13 µM. The TGI (UO-31 renal) was 29.4 µM, the GI50 (SW-620 colon) was 7.97 µM and the TGI (SW-620 colon) was 28.3 µM. For the same compound, the GI50 (NCI-H23 lung) was 10.5 µM and the TGI (NCI-H23 lung) was 31.9 µM.
Work on CCN(CC)CCNc1c(OC)cc(C)c2sc3ccccc3c(=O)c12 yielded a TGI (OVCAR-3 ovarian) of 26.2 µM, a TGI (M14 melanoma) of 12.1 µM and a TGI (OVCAR-4 ovarian) of 14.8 µM. For the same compound, the TGI (HCT-15 colon) was 14.4 µM, the TGI (K-562 leukemia) was 4.04 µM and the TGI (HL-60(TB) leukemia) was 18.9 µM. It also gave a TGI (RXF 393 renal) of 34 µM, a TGI (UO-31 renal) of 20.3 µM and a TGI (SW-620 colon) of 17.9 µM. For the same compound, the TGI (NCI-H23 lung) was 29 µM.
In the case of CN(C(=O)c1ccc(Cl)s1)C(=S)N(C)C(=O)c1ccc(Cl)s1, the TGI (OVCAR-3 ovarian) is reported as over 10 µM, the TGI (M14 melanoma) is reported as over 10 µM and the TGI (OVCAR-4 ovarian) is reported as over 10 µM. It also gave a TGI (HCT-15 colon) of over 10 µM, a TGI (K-562 leukemia) of over 10 µM and a TGI (HL-60(TB) leukemia) of over 10 µM. For the same compound, the TGI (RXF 393 renal) was over 10 µM, the TGI (UO-31 renal) was over 10 µM and the TGI (SW-620 colon) was over 10 µM. For the same compound, the TGI (NCI-H23 lung) was over 10 µM.
COc1cc(OC)c(/C=C/c2ccc3ccccc3[n+]2C)c(OC)c1 gave a GI50 (OVCAR-3 ovarian) of 0.56 µM, a TGI (OVCAR-3 ovarian) of 3.9 µM and a GI50 (M14 melanoma) of 1.22 µM. The TGI (M14 melanoma) was 5.01 µM, the GI50 (OVCAR-4 ovarian) was 0.659 µM and the TGI (OVCAR-4 ovarian) was 15.8 µM. The GI50 (HCT-15 colon) was 12.8 µM, the TGI (HCT-15 colon) was over 100 µM and the GI50 (K-562 leukemia) was 0.271 µM. The TGI (K-562 leukemia) was 20.9 µM, the GI50 (HL-60(TB) leukemia) was 0.363 µM and the TGI (HL-60(TB) leukemia) was 2.92 µM. The GI50 (RXF 393 renal) was 2.06 µM, the TGI (RXF 393 renal) was 11.7 µM and the GI50 (UO-31 renal) was 6.14 µM. For the same compound, the TGI (UO-31 renal) was 54 µM, the GI50 (SW-620 colon) was 0.902 µM and the TGI (SW-620 colon) was 11.3 µM. It also gave a GI50 (NCI-H23 lung) of 0.686 µM and a TGI (NCI-H23 lung) of 12.2 µM.
O=[N+]([O-])c1ccc2[nH]cc(-c3c4ccsc4cc4[nH]c5ccc([N+](=O)[O-])cc5c34)c2c1 gave a GI50 (OVCAR-3 ovarian) of 0.354 µM, a TGI (OVCAR-3 ovarian) of 1.44 µM and a GI50 (M14 melanoma) of 0.527 µM. For the same compound, the TGI (M14 melanoma) was 1.39 µM, the GI50 (OVCAR-4 ovarian) was 1.8 µM and the TGI (OVCAR-4 ovarian) was 9.38 µM. The GI50 (HCT-15 colon) was 0.735 µM, the TGI (HCT-15 colon) was 9.68 µM and the GI50 (K-562 leukemia) was 0.664 µM. The TGI (K-562 leukemia) was 12.3 µM, the GI50 (HL-60(TB) leukemia) was 1.1 µM and the TGI (HL-60(TB) leukemia) was 19.4 µM. It also gave a GI50 (RXF 393 renal) of 0.592 µM, a TGI (RXF 393 renal) of 1.85 µM and a GI50 (UO-31 renal) of 0.827 µM. It also gave a TGI (UO-31 renal) of 5.14 µM, a GI50 (SW-620 colon) of 1.07 µM and a TGI (SW-620 colon) of 8.37 µM. For the same compound, the GI50 (NCI-H23 lung) was 1.21 µM and the TGI (NCI-H23 lung) was 5.62 µM.
In the case of CCC(=O)c1cn(C)c(=O)c2ccccc12, the TGI (OVCAR-3 ovarian) is reported as over 100 µM, the TGI (M14 melanoma) is reported as over 100 µM and the TGI (OVCAR-4 ovarian) is reported as over 100 µM. For the same compound, the TGI (HCT-15 colon) was over 100 µM, the TGI (K-562 leukemia) was over 100 µM and the TGI (HL-60(TB) leukemia) was over 100 µM. The TGI (RXF 393 renal) was over 100 µM, the TGI (UO-31 renal) was over 100 µM and the TGI (SW-620 colon) was over 100 µM. The TGI (NCI-H23 lung) was over 100 µM.
In the case of CC1CC(c2ccccc2)=Nc2ccccc2S1(=O)=O (stereo not given), the TGI (OVCAR-3 ovarian) is reported as 32.8 µM, the TGI (M14 melanoma) is reported as 40.9 µM and the TGI (OVCAR-4 ovarian) is reported as 38.3 µM. The TGI (HCT-15 colon) was 54.2 µM, the TGI (K-562 leukemia) was 41.9 µM and the TGI (HL-60(TB) leukemia) was 52.8 µM. The TGI (RXF 393 renal) was 28.7 µM, the TGI (UO-31 renal) was 29 µM and the TGI (SW-620 colon) was 31.6 µM. The TGI (NCI-H23 lung) was 30.8 µM.
CCOC(=O)C(C)(C)Oc1ccc2c(=O)cc(-c3ccc(Cl)cc3)oc2c1 showed a TGI (OVCAR-3 ovarian) of over 100 µM, a TGI (M14 melanoma) of over 100 µM and a TGI (OVCAR-4 ovarian) of over 100 µM. The TGI (HCT-15 colon) was over 100 µM, the TGI (K-562 leukemia) was over 100 µM and the TGI (HL-60(TB) leukemia) was over 100 µM. For the same compound, the TGI (RXF 393 renal) was over 100 µM, the TGI (UO-31 renal) was over 100 µM and the TGI (SW-620 colon) was over 100 µM. For the same compound, the TGI (NCI-H23 lung) was over 100 µM.
For O=C(Nc1ccccc1C(F)(F)F)c1cccc(NC2=C(Cl)C(=O)N(Cc3ccccc3)C2=O)c1, the GI50 (OVCAR-3 ovarian) was 6.62 µM, the TGI (OVCAR-3 ovarian) was over 43.8 µM and the GI50 (M14 melanoma) was 23 µM. The TGI (M14 melanoma) was over 76.8 µM, the GI50 (OVCAR-4 ovarian) was 45.1 µM and the TGI (OVCAR-4 ovarian) was over 100 µM. For the same compound, the GI50 (HCT-15 colon) was 3.8 µM, the TGI (HCT-15 colon) was over 24.5 µM and the GI50 (K-562 leukemia) was 3.55 µM. It also gave a TGI (K-562 leukemia) of over 100 µM, a GI50 (HL-60(TB) leukemia) of 31.8 µM and a TGI (HL-60(TB) leukemia) of over 100 µM. It also gave a GI50 (RXF 393 renal) of 3.13 µM, a TGI (RXF 393 renal) of 12.3 µM and a GI50 (UO-31 renal) of 19.8 µM. The TGI (UO-31 renal) was 97.8 µM, the GI50 (SW-620 colon) was 22 µM and the TGI (SW-620 colon) was over 100 µM. For the same compound, the GI50 (NCI-H23 lung) was 19.2 µM and the TGI (NCI-H23 lung) was 62.5 µM.
CCN(CC)c1ccc(N=Nc2ccc(-c3nc4cccnc4o3)cc2)cc1 showed a TGI (OVCAR-3 ovarian) of over 100 µM, a TGI (M14 melanoma) of over 100 µM and a TGI (OVCAR-4 ovarian) of over 100 µM. It also gave a TGI (HCT-15 colon) of over 100 µM, a TGI (K-562 leukemia) of over 100 µM and a TGI (HL-60(TB) leukemia) of over 100 µM. The TGI (RXF 393 renal) was over 100 µM, the TGI (UO-31 renal) was over 100 µM and the TGI (SW-620 colon) was over 100 µM. It also gave a TGI (NCI-H23 lung) of over 100 µM.
COc1ccc(-c2c(C3=NCCN3)nnn2-c2ccccc2)cc1 was tested, and the TGI (OVCAR-3 ovarian) was over 100 µM, the TGI (M14 melanoma) was over 100 µM and the TGI (OVCAR-4 ovarian) was over 100 µM. It also gave a TGI (HCT-15 colon) of over 100 µM, a TGI (K-562 leukemia) of over 100 µM and a TGI (HL-60(TB) leukemia) of over 100 µM. It also gave a TGI (RXF 393 renal) of over 100 µM, a TGI (UO-31 renal) of over 100 µM and a TGI (SW-620 colon) of over 100 µM. It also gave a TGI (NCI-H23 lung) of over 100 µM.
